Laboratory results published in US20220056043A1, “NITROGEN-CONTAINING FUSED CYCLIC COMPOUND, PREPARATION METHOD THEREFOR AND USE THEREOF” (SICHUAN KELUN-BIOTECH BIOPHARMACEUTICAL CO., LTD., priority 2019, published 2022).

Experiments:
[1] = tested on: THP1-defNLRP3 cells; assay: Agonistic effect on the expression of IL-1β in NLRP3 deficient THP1 cells (THP1-defNLRP3) after PMA-induced differentiation (HTRF); assay type: cell-based, human; details: Homo sapiens, THP-1; IL-1β level, PMA-differentiated NLRP3 deficient THP1 cells, 6 hours; highest test concentration 30 μM; read-out: hNLRP3 EC50 (μM) (THP-1defNLRP3)
Source text: Experimental Example 2: Agonistic Effect of the Compound of the Invention on the Expression of IL-1β in NLRP3 Deficient THP1 Cells (THP1-defNLRP3 Cells) after PMA-Induced Differentiation
In this test, a HTRF detection method was used to test the effect of the compound of the invention on the level of IL-1β in THP1-defNLRP3 cells to evaluate the specificity of the agonistic effect of the compound on hNLRP3 inflammasome or hNLRP3 inflammasome pathway.
Reagents: as described in Experimental Example 1
Cell: THP1-defNLRP3 (InvivoGen)
Kit: IL-1β assay kit (CISBIO)
1) THP1-defNLRP3 cells in a logarithmic growth phase were seeded in a T75 culture flask at a density of 5×10^5 cells/well, and cultured in a cell incubator at 37° C., 5% CO2 for 24 hours, and then 1 μM PMA was used to induce THP1-defNLRP3 suspension cells to become adherent macrophages. The medium was RPMI 1640 containing 10% heat-inactivated FBS and 0.05 mM β-mercaptoethanol.
2) The cells were induced and cultured for 24 hours. Then the adherent cells were trypsinized and centrifuged at 1000 rpm for 5 min. The supernatant was removed, and the cells were resuspended to a density of 2×10^6 cells/mL in RPMI 1640 medium containing 2% heat-inactivated FBS. 50 μL/well of the cell resuspension was taken and spread on a 96-well plate such that the number of cells in each well was 1×10^5.
3) An appropriate amount of 10 mM DMSO solution of the compound to be tested was taken and diluted to a concentration of 2× test concentration with RPMI 1640 medium containing 2% heat-inactivated FBS. 50 μL/well of the dilution was added to the cells in the 96-well plate, and mixed well. The plate was incubated in a cell incubator at 37° C., 5% CO2 for 6 hours. The supernatant was collected, and the level of IL-1β was measured in accordance with the instructions of the IL-1β detection kit.
4) EC50 was fitted by the GraphPad software log(agonist) vs. response—Variable slope four-parameter method.

[2] = molecular target: T1, hTLR8 (Homo sapiens, UniProt Q9NR97); assay: Agonistic effect on hTLR8, HEK-Blue hTLR8 cells, alkaline phosphatase secretion; assay type: cell-based; details: 16 hours
T1 construct: host or cells: HEK-Blue hTLR8 cells
T1 sequence (Q9NR97 27-1041): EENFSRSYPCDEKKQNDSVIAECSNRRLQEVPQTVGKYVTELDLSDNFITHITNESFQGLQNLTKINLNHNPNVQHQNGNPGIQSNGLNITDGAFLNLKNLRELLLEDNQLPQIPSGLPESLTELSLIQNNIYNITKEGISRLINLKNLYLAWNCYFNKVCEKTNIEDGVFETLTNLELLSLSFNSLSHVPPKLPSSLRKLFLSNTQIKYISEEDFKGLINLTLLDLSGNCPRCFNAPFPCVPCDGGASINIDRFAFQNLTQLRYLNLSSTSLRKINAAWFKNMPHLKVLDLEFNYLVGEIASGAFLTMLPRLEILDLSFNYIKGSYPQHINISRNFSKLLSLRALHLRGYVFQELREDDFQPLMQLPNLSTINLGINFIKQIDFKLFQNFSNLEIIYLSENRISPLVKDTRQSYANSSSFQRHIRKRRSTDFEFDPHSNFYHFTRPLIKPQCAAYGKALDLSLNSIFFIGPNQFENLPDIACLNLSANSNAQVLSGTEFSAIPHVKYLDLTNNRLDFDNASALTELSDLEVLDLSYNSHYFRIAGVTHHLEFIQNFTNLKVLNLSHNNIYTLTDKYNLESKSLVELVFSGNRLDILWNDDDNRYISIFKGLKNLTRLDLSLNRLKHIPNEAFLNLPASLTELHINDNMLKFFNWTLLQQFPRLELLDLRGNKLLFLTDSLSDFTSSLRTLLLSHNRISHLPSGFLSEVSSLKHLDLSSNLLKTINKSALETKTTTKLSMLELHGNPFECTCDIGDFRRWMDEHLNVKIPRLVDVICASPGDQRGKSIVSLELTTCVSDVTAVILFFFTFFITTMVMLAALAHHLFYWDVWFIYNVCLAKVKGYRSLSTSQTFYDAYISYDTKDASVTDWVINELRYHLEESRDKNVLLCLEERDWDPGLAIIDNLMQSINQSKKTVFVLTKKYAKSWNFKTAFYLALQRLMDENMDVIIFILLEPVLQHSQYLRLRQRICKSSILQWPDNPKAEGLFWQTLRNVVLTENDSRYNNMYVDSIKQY
Description: Experimental Example 4: Agonistic Effect of the Compound of the Invention on hTLR8
In this test, the secretion of alkaline phosphatase in HEK-Blue cells was measured to test the activating effect of the compound of the invention on TLR8 signaling pathway, so as to evaluate the specificity of the agonistic effect of the compound on NLRP3 pathway.
Reagents: DMEM (High glucose); FBS (fetal bovine serum) (Gibco); QUANTI-Blue/InvivoGen/rep-qb2
Cells: HEK-Blue™ hTLR8 cells (human TLR 8 cells) (InvivoGen) Experimental Procedures:
1) The HEK-Blue™ hTLR8 cells in a logarithmic growth phase were trypsinized and resuspended in the medium to a concentration of 2×10^6 cells/mL. 50 μL/well of the cell suspension was added to a 96-well plate. An appropriate amount of 10 mM DMSO solution of the compound to be tested was taken and diluted to a concentration of 2× test concentration with the medium. 50 μL/well was added to the cells in the 96-well plate. The plate was incubated in an incubator at 37° C. and 5% CO2 for 16 hours. The medium was DMEM (High glucose) containing 10% FBS. 2) After the cell incubation, 10 μL of cell culture supernatant was transferred to a 96-well plate. 90 μL/well of QUANTI-Blue detection solution was added, and the mixture was incubated at 37° C. for 3 hours. OD620 was read using a microplate reader.
3) The EC50 of the effect of the tested compound to stimulate hTLR8 was fitted by the GraphPad software log(agonist) vs. response—Variable slope four-parameter method.

Compound	EC50 [1]	EC50 [2]
C[C@@H]1COCCN1c1cc(N)nc2cc(-c3ccn[nH]3)sc12 [Compound 177]	> 30 µM	> 100 µM
CN1CCC[C@@H](Nc2cc(N)nc3cc(-c4ccn[nH]4)sc23)C1 [Compound 104, (R)—N^7-(1-methylpiperidin-3-yl)-2-(1H-pyrazol-5-yl)thieno[3,2-b]pyridine-5,7-diamine]	> 30 µM	> 100 µM
CC(=O)NCCNc1cc(N)nc2cc(-c3ccn[nH]3)sc12 [Compound 52]	> 30 µM	> 100 µM
Nc1cc(NCc2ccccn2)c2sc(-c3ccn[nH]3)cc2n1 [Compound 59, 2-(1H-pyrazol-5-yl)-N^7-(pyridin-2-ylmethyl)thieno[3,2-b]pyridine-5,7-diamine]	> 30 µM	> 100 µM
Nc1cc(N2CCN(C3CCCCC3)CC2)c2sc(-c3ccn[nH]3)cc2n1 [Compound 167]	> 30 µM	> 100 µM
Nc1cc(N2CCOCC2)c2sc(-c3ccn[nH]3)cc2n1 [Compound 170]	> 30 µM	> 100 µM
Nc1cc(NCC(F)(F)c2ccccn2)c2sc(-c3ccn[nH]3)cc2n1 [Compound 97, N^7-(2,2-difluoro-2-(pyridin-2-yl)ethyl)-2-(1H-pyrazol-5-yl)thieno[3,2-b]pyridine-5,7-diamine]	> 30 µM	> 100 µM
CC1(CNc2cc(N)nc3cc(-c4ccn[nH]4)sc23)COC1 [Compound 121, N^7-((3-methyloxetan-3-yl)methyl)-2-(1H-pyrazol-5-yl)thieno[3,2-b]pyridine-5,7-diamine]	> 30 µM	> 100 µM
CCC(CC)Nc1cc(N)nc2cc(-c3ccn[nH]3)sc12 [Compound 113, N^7-(pent-3-yl)-2-(1H-pyrazol-5-yl)thieno[3,2-b]pyridine-5,7-diamine]	> 30 µM	> 100 µM
Nc1cc(N[C@H]2CC[C@H](O)C2)c2sc(-c3ccn[nH]3)cc2n1 [Compound 26, (1S,3S)-3-((5-amino-2-(1H-pyrazol-5-yl)thieno[3,2-b]pyridin-7-yl)amino)cyclopentanol]	> 30 µM	> 100 µM
Nc1cc(N2CCC(O)CC2)c2sc(-c3ccn[nH]3)cc2n1 [Compound 172]	> 30 µM	> 100 µM
Nc1cc(N2CCCC(O)C2)c2sc(-c3ccn[nH]3)cc2n1 (centres unmarked) [Compound 166]	> 30 µM	> 100 µM
Cc1c(-c2cc[nH]n2)sc2c(NCCN3CCOCC3)cc(N)nc12 [Compound 153]	> 30 µM	> 100 µM
CCC(=O)N(C)CCNc1cc(N)nc2cc(-c3ccn[nH]3)sc12 [Compound 88, N-(2-((5-amino-2-(1H-pyrazol-5-yl)thieno[3,2-b]pyridin-7-yl)amino)ethyl)-N-methylpropionamide]	> 30 µM	> 100 µM
Cc1c(-c2cc[nH]n2)sc2c(NCC3CC3)cc(N)nc12 [Compound 156]	> 30 µM	> 100 µM
Nc1cc(N2CCN(C3CCCC3)CC2)c2sc(-c3ccn[nH]3)cc2n1 [Compound 160]	> 30 µM	> 100 µM

Compound	EC50 [1]	EC50 [2]
Nc1cc(NCCCO)c2sc(-c3ccccc3)cc2n1 [Compound 93, 3-((5-amino-2-phenylthieno[3,2-b]pyridin-7-yl)amino)-1-propanol]	> 30 µM	> 100 µM
CC1(C)CN(c2cc(N)nc3cc(-c4ccn[nH]4)sc23)CCO1 [Compound 171]	> 30 µM	> 100 µM
Nc1cc(NC[C@@H]2CCCO2)c2sc(-c3ccn[nH]3)cc2n1 [Compound 105, (S)-2-(1H-pyrazol-5-yl)-N^7-((tetrahydrofuran-2-yl)methyl)thieno[3,2-b]pyridine-5,7-diamine]	> 30 µM	> 100 µM
CC(=O)NCCCNc1cc(N)nc2cc(-c3ccn[nH]3)sc12 [Compound 53]	> 30 µM	> 100 µM
Nc1cc(NC2CC(O)C2)c2sc(-c3ccn[nH]3)cc2n1 (centres unmarked) [Compound 40, 3-((5-amino-2-(1H-pyrazol-5-yl)thieno[3,2-b]pyridin-7-yl)amino)cyclobutanol]	> 30 µM	> 100 µM
COC1CCN(c2cc(N)nc3cc(-c4ccn[nH]4)sc23)C1 (centres unmarked) [Compound 180]	> 30 µM	> 100 µM
COC(C)(C)CNc1cc(N)nc2cc(-c3ccn[nH]3)sc12 [Compound 111, N^7-(2′-methoxy-2′-methylpropyl)-2-(1H-pyrazol-5-yl)thieno[3,2-b]pyridine-5,7-diamine]	> 30 µM	> 100 µM
CC(C)N1CCN(c2cc(N)nc3cc(-c4ccn[nH]4)sc23)CC1 [Compound 162]	> 30 µM	> 100 µM
Nc1cc(N2CCN(c3ccccc3)CC2)c2sc(-c3ccn[nH]3)cc2n1 [Compound 174]	> 30 µM	> 100 µM
Nc1cc(N[C@@H]2CCC[C@@H]2O)c2sc(-c3ccn[nH]3)cc2n1 [Compound 96, (1S,2R)-2-((5-amino-2-(1H-pyrazol-5-yl)thieno[3,2-b]pyridin-7-yl)amino)cyclopentanol]	> 30 µM	> 100 µM
CN1CCN(CCCNc2cc(N)nc3cc(-c4ccn[nH]4)sc23)CC1 [Compound 54, N^7-(3-(4-methylpiperazin-1-yl)propyl)-2-(1H-pyrazol-5-yl)thieno[3,2-b]pyridine-5,7-diamine]	> 30 µM	> 100 µM
CS(=O)(=O)N1CCN(c2cc(N)nc3cc(-c4ccn[nH]4)sc23)CC1 [Compound 164]	> 30 µM	> 100 µM
CN1CCN(c2cc(N)nc3cc(-c4ccn[nH]4)sc23)CC1 [Compound 161]	> 30 µM	> 100 µM
Nc1cc(N2CC3CC(C2)N3C=O)c2sc(-c3ccn[nH]3)cc2n1 [Compound 179]	> 30 µM	> 100 µM
C[C@@H](CO)Nc1cc(N)nc2cc(-c3ccn[nH]3)sc12 [Compound 108, (S)-2-((5-amino-2-(1H-pyrazol-5-yl)thieno[3,2-b]pyridin-7-yl)amino)propanol]	> 30 µM	> 100 µM
